Laboratory results reported in patent US10323022B2, “Pyrrolidinyl urea, pyrrolidinyl thiourea and pyrrolidinyl guanidine compounds as TrkA kinase inhibitors” (Array BioPharma Inc., priority 2011, dated 2019).

Biological target: TrkA (Homo sapiens (Human), UniProt P04629)
Assay: TrkA Omnia Assay
Assay type: biochemical
Details: averaged IC50; 20 nM enzyme, 500 μM ATP, 10 μM peptide substrate
How it was run: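 Continuous fluorescent kinase read-out (ex 360 nm, em 485 nm) over 70 min, with initial rates fitted to 4- or 5-parameter logistic curves for IC50. Final conditions: 500 μM ATP, 10 μM Omnia Tyr Peptide #4, 20 nM TrkA, MOPS pH 7.5 buffer with MgCl2 and Triton X-100; enzyme and compound preincubated 10 min at ambient temperature.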

Chain of TrkA (P04629 33-796): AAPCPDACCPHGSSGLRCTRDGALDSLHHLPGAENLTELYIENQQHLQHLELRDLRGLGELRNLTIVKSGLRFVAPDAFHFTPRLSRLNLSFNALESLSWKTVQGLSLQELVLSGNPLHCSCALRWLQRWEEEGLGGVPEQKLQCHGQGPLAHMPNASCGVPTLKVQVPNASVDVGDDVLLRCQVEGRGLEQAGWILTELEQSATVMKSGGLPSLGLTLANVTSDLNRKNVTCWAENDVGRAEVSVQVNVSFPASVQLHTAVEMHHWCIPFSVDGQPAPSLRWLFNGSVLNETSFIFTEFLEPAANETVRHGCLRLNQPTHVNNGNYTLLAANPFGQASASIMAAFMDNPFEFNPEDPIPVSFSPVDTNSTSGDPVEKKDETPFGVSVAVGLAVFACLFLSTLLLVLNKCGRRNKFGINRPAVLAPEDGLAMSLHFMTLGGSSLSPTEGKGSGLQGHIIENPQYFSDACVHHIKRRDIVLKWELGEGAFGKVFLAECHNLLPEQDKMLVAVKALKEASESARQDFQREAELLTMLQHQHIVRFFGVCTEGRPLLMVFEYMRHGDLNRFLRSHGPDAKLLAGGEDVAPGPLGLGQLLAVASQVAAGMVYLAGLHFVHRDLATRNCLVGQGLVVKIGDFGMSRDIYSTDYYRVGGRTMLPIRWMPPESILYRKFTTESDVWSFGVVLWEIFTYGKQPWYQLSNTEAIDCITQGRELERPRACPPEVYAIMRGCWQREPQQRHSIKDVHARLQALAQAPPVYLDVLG

Row | IC50 | Structure (SMILES)
1 | < 100 nM | COCCN1C[C@@H](NC(=O)Nc2c(Cl)c(-c3cnn(C)c3)nn2-c2ccccc2)[C@H](c2ccc(F)c(F)c2)C1 [Example 423, 1-(4-chloro-1′-methyl-1-phenyl-1H,1′H-[3,4′-bipyrazol]-5-yl)-3-((3S,4R)-4-(3,4-difluorophenyl)-1-(2-methoxyethyl)pyrrolidin-3-yl)urea]
2 | < 100 nM | Cc1c(OCC#N)nn(-c2ccccc2)c1NC(=O)N[C@H]1CN(CC(F)(F)F)C[C@@H]1c1ccccc1 [Example 268, 1-(3-(cyanomethoxy)-4-methyl-1-phenyl-1H-pyrazol-5-yl)-3-((3R,4S)-4-phenyl-1-(2,2,2-trifluoroethyl)pyrrolidin-3-yl)urea]
3 | < 100 nM | Cc1nn(-c2ccccc2)c(NC(=O)N[C@@H]2CN(CC(F)(F)F)C[C@H]2c2ccccc2)c1C (relative stereo) [Example 195, 1-(3,4-dimethyl-1-phenyl-1H-pyrazol-5-yl)-3-((trans)-4-phenyl-1-(2,2,2-trifluoroethyl)pyrrolidin-3-yl)urea]
4 | < 100 nM | COCCN1C[C@@H](NC(=O)Nc2c(C)c(CCO)nn2-c2ccccc2)[C@H](c2ccc(F)cc2)C1 [Example 287, 1-((3S,4R)-4-(4-fluorophenyl)-1-(2-methoxyethyl)pyrrolidin-3-yl)-3-(3-(2-hydroxyethyl)-4-methyl-1-phenyl-1H-pyrazol-5-yl)urea]
5 | < 100 nM | CCOc1nn(-c2ccccc2)c(NC(=O)N[C@H]2CN(CC(F)(F)F)C[C@@H]2c2ccccc2)c1C [Example 267, 1-(3-ethoxy-4-methyl-1-phenyl-1H-pyrazol-5-yl)-3-((3R,4S)-4-phenyl-1-(2,2,2-trifluoroethyl)pyrrolidin-3-yl)urea]
6 | < 100 nM | COCC(C(=O)OC)N1C[C@@H](NC(=O)Nc2c3c(nn2-c2ccccc2)CCC3)[C@H](c2ccc(F)c(F)c2)C1 (stereo partly drawn) [Example 259, methyl2-((3R,4S)-3-(3,4-difluorophenyl)-4-(3-(2-phenyl-2,4,5,6-tetrahydrocyclopenta[c]pyrazol-3-yl)ureido)pyrrolidin-1-yl)-3-methoxypropanoate]
7 | 100 to 1000 nM | COCCN1C[C@@H](NC(=O)Nc2c3c(nn2-c2ccccc2)C(=O)N(C)C3)[C@H](c2ccc(F)c(F)c2)C1 [Example 353, 1-((3S,4R)-4-(3,4-difluorophenyl)-1-(2-methoxyethyl)pyrrolidin-3-yl)-3-(5-methyl-6-oxo-2-phenyl-2,4,5,6-tetrahydropyrrolo[3,4-c]pyrazol-3-yl)urea]
8 | < 100 nM | CCOc1nn(-c2ccccc2)c(NC(=O)N[C@@H]2CN(c3ccnn3C)C[C@H]2c2ccccc2)c1C [Example 228, 1-(3-ethoxy-4-methyl-1-phenyl-1H-pyrazol-5-yl)-3-((3S,4R)-1-(1-methyl-1H-pyrazol-5-yl)-4-phenylpyrrolidin-3-yl)urea]
9 | < 100 nM | COCCN1C[C@@H](NC(=O)Nc2c(C)c(C)nn2-c2ccccc2)[C@H](c2cncc(Cl)c2)C1 (relative stereo) [Example 343, 1-(trans-4-(5-chloropyridin-3-yl)-1-(2-methoxyethyl)pyrrolidin-3-yl)-3-(3,4-dimethyl-1-phenyl-1H-pyrazol-5-yl)urea]
10 | < 100 nM | COCCN1C[C@@H](NC(=O)Nc2c(C)c(OC[C@H](O)CO)nn2-c2ccccc2)[C@H](c2cc(F)cc(F)c2)C1 [Example 558, 1-((3S,4R)-4-(3,5-difluorophenyl)-1-(2-methoxyethyl)pyrrolidin-3-yl)-3-(3-((R)-2,3-dihydroxypropoxy)-4-methyl-1-phenyl-1H-pyrazol-5-yl)urea]
11 | < 100 nM | COCCN1C[C@@H](NC(=O)Nc2c(Br)c(C)nn2-c2ccccc2)[C@H](c2cncc(F)c2)C1 [Example 433]
12 | < 100 nM | COCCN1C[C@@H](NC(=O)Nc2c(Cl)c(-c3cnn(C)c3)nn2-c2ccccc2)[C@H](c2ccccc2)C1 [Example 425, 1-(4-chloro-1′-methyl-1-phenyl-1H,1′H-[3,4′-bipyrazol]-5-yl)-3-((3S,4R)-4-phenyl-1-(2-methoxyethyl)pyrrolidin-3-yl)urea]
13 | 100 to 1000 nM | COCCN1C[C@@H](NC(=O)Nc2c3c(nn2-c2cnn(C)c2)CCC3)[C@H](c2ccccc2)C1 (relative stereo) [Example 33, 1-(trans-1-(2-methoxyethyl)-4-phenylpyrrolidin-3-yl)-3-(2-(1-methyl-1H-pyrazol-4-yl)-2,4,5,6-tetrahydrocyclo-penta[c]pyrazol-3-yl)urea]
14 | < 100 nM | COCCN1C[C@@H](NC(=O)Nc2c(C)c(OCC(C)(C)O)nn2-c2ccccc2)[C@H](c2cc(F)c(F)c(F)c2)C1 [Example 401, 1-(3-(2-hydroxy-2-methylpropoxy)-4-methyl-1-phenyl-1H-pyrazol-5-yl)-3-((3S,4R)-1-(2-methoxyethyl)-4-(3,4,5-trifluorophenyl)pyrrolidin-3-yl)urea]
15 | < 100 nM | Cc1c(OC[C@H](C)O)nn(-c2ccccc2)c1NC(=O)N[C@@H]1CN(c2cn[nH]c2)C[C@H]1c1ccc(F)c(F)c1 [Example 221, 1-((3S,4R)-4-(3,4-difluorophenyl)-1-(1H-pyrazol-4-yl)pyrrolidin-3-yl)-3-(3-((S)-2-hydroxypropoxy)-4-methyl-1-phenyl-1H-pyrazol-5-yl)urea]
16 | < 100 nM | COCCN1C[C@@H](NC(=O)Nc2c(C)c(CCO)nn2-c2ccccc2)[C@H](c2ccc(F)c(F)c2)C1 [Example 133, 1-((3S,4R)-4-(3,4-difluorophenyl)-1-(2-methoxyethyl)pyrrolidin-3-yl)-3-(3-(2-hydroxy-ethyl)-4-methyl-1-phenyl-1H-pyrazol-5-yl)urea]
17 | < 100 nM | COCCN1C[C@@H](NC(=O)Nc2c(Cl)c(-c3cccnc3)nn2-c2ccccc2)[C@H](c2ccc(F)c(F)c2)C1 [Example 482, 1-(4-chloro-1-phenyl-3-(pyridin-3-yl)-1H-pyrazol-5-yl)-3-((3S,4R)-4-(3,4-difluorophenyl)-1-(2-methoxyethyl)pyrrolidin-3-yl)urea]
18 | < 100 nM | COCCN1C[C@@H](NC(=O)Nc2c(C)c(OCCNC(C)=O)nn2-c2ccccc2)[C@H](c2ccc(F)c(F)c2)C1 [Example 545, N-(2-((5-(3-((3S,4R)-4-(3,4-difluorophenyl)-1-(2-methoxyethyl)pyrrolidin-3-yl)ureido)-4-methyl-1-phenyl-1H-pyrazol-3-yl)oxy)ethyl)acetamide]
19 | < 100 nM | COCCN1C[C@@H](NC(=O)Nc2c(Br)c(C(=O)NOC)nn2-c2ccccc2)[C@H](c2ccc(F)c(F)c2)C1 [Example 555, 4-bromo-5-(3-((3S,4R)-4-(3,4-difluorophenyl)-1-(2-methoxyethyl)pyrrolidin-3-yl)ureido)-N-methoxy-1-phenyl-1H-pyrazole-3-carboxamide]
20 | < 100 nM | COCCN1C[C@@H](NC(=O)Nc2cc(-c3ccccc3)nn2C)[C@H](c2cc(F)cc(F)c2)C1 [Example 98, 1-((3S,4R)-4-(3,5-difluorophenyl)-1-(2-methoxyethyl)pyrrolidin-3-yl)-3-(1-methyl-3-phenyl-1H-pyrazol-5-yl) urea]

Row | Structure (SMILES) | IC50
21 | CC[C@@H](O)COc1nn(-c2ccccc2)c(NC(=O)N[C@@H]2CN(CCOC)C[C@H]2c2ccc(F)cc2)c1C [Example 379, 1-((3S,4R)-4-(4-fluorophenyl)-1-(2-methoxyethyl)pyrrolidin-3-yl)-3-(3-((R)-2-hydroxybutoxy)-4-methyl-1-phenyl-1H-pyrazol-5-yl)urea] | < 100 nM
